Columns and labels:
Sir2 = Sir2 (Saccharomyces cerevisiae, UniProt P53686); format: biochemical
Experimental: In parallel to the in silico screen, a solution screen for Sir2 effectors was carried out. A library containing about 10,000 Diversity Oriented Synthesis (DOS) compounds and natural product sub-libraries of compounds was screened using both yHst2 and hSIRT1 proteins.

Hst2 (residues 1-294) = Hst2 (residues 1-294) (Saccharomyces cerevisiae, UniProt P53686); test: biased in vitro screening assay for relief of nicotinamide inhibition (Fluor de Lys); format: biochemical; details: […] μM nicotinamide present
Experimental: This in vitro screen was carried out as follows.

Hst2 (residues 1-294), sequence (P53686 1-294): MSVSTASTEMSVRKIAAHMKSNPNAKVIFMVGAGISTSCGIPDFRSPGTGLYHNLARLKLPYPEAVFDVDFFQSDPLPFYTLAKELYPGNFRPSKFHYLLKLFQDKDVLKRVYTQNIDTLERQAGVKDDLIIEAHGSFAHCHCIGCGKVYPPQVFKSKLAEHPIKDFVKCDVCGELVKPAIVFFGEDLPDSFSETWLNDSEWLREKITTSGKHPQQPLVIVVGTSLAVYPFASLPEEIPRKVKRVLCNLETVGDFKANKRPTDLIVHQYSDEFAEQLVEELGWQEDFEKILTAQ
Sir2, sequence (P53686 1-294): as above

| Compound | IC50 (Sir2) [µM] | Fold Activation (Hst2 (residues 1-294)) |
| --- | --- | --- |
| Zinc pyrithione [reference compound] | 1.8 ± 1.3 | – |
| CC1(C)CC(=O)C2=C(C1)NC1=C(C(=O)CC(C)(C)C1)C2c1cccc(F)c1 [9-(3-Fluoro-phenyl)-3,3,6,6-tetramethyl-2,4,6,7,9,10-hexahydro-2H,5H-acridine-1,8-dione] | – | 2.2 |
| O=C(O)CCN1Cc2ccccc2C1=O | 19.8 ± 1.1 | – |
| 6-(4-Fluoro- phenyl)-2,3- diphenyl-1,5- dihydro- imidazo[1,2- α]imidazole | – | 2.9 |

Reference: patent US8180580B2, “Method for identifying a compound that modulates SIR2 protein activity” (The Wistar Institute, priority 2007, dated 2012)
